Reference: paper PMC10113214 (Scientific Reports, 2023)

Columns and labels:
[1] = target: T1, Human neutrophil elastase (Homo sapiens, UniProt P08246); assay: Elastase enzymatic cleavage; assay type: in vitro ADME; details: human neutrophil elastase 150 nM, peptide 1 mM, 30 min, 37 °C; for identified fragments of peptides after elastase digestion (most abundant MS signals): 300 rpm, 0.1 M Tris HCl, 500 mM NaCl, 0.05% Triton X-100, 20 mM CaCl2 pH 7.5, HPLC and MALDI or LC-MS
T1 construct: purchased Sigma-Aldrich
T1 sequence (P08246 30-267): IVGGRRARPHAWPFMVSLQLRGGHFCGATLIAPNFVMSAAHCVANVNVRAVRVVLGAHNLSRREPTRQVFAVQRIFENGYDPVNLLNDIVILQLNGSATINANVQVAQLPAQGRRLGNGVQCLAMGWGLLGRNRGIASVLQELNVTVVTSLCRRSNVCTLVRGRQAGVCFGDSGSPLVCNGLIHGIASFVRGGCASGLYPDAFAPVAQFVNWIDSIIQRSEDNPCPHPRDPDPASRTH
Protocol: Human neutrophil elastase (EC No. 3.4.21.37, Sigma-Aldrich) was used to study peptide susceptibility to that enzyme. Peptides were dissolved in 0.1 M Tris HCl, 500 mM NaCl, 0.05% Triton X-100, 20 mM CaCl2 pH 7.5 buffer mixture. Peptides (final concentration 1 mM) were mixed with the enzyme (final concentration 150 nM) and incubated for 30 min. in a thermoshaker (37 °C, 300 rpm). The reaction was stopped by a 10% aqueous solution of TFA. The results were analyzed using HPLC and MALDI or LC–MS. Details of this experiment are described in the Supplementary Data.

HaCaT keratinocytes = assay: LDH cytotoxicity assay, HaCaT; assay type: cell-based, human; details: 150 µg/ml, 48 h, 3 independent experiments, n = 12
Protocol: (§1) Human HaCaT keratinocytes (DKFZ, Heidelberg, Germany)[47],[48], the human dermal fibroblast 46BR.1N cell line (ECACC, Sigma Aldrich Co.) and human primary dermal fibroblasts used in this study were routinely cultured in culture flasks (growth surface area: 25 cm^2) in DMEM-HG medium supplemented with 10% fetal bovine serum, 100 U/mL penicillin and […] streptomycin under standard conditions.
(§2) Briefly, the HaCaT and 46BR.1N cells were seeded in 96-well plates at a density of 5000 per well. Cell stimulation with RADA derivatives was performed using a protocol described before[49],[50]. Both assays were performed according to the manufacturers’ instructions (XTT- Roche, Cat. No. 11465015001; LDH- Takara, Cat. No. MK401).

46BR.1N fibroblasts = assay: LDH cytotoxicity assay, 46BR.1N; assay type: cell-based, human; details: 150 µg/ml, 48 h, 3 independent experiments, n = 12
Protocol: as §1, §2

[2] = Circular dichroism, conformation and thermal stability of β-sheet; assay type: physicochemical; details: CD
Protocol: The molar ellipticity of peptides were registered on a Jasco J-815 spectrometer (JASCO, Easton, MD, USA). Solutions of peptide hybrids were prepared in water solution (10 mg/ml), incubated at 37 °C for 4 h and then diluted to a final concentration of 0.20 mg/ml. CD spectra measurements were performed at 25 °C, 30 °C, 35 °C, 40 °C, 45 °C, 50 °C, 55 °C and 60 °C, at 190–260 nm wavelength and at a scan speed of […]. The background of the solvent was subtracted. The results are presented as the relationship of mean residue molar ellipticity (MRME) [deg × cm^2 × dmol^−1] to wavelength [nm]. Measurements were performed in triplicate. In order to determine the peptides’ denaturation temperatures, the molar ellipticity rotatory angle at a fixed wavelength of 196 nm, [θ]196, was measured as a function of temperature (max 100 °C). CD temperature measurements were carried out up to a temperature of 100 °C. Above this temperature, the cure was extrapolated with GraphPad Prism 8 software using the 4PL curve fit function. The denaturation temperature was determined as the temperature at which the change in ellipticity (θ) was half complete.

[3] = tested on: human primary dermal fibroblasts; assay type: cell-based
Protocol: Skin samples were obtained from patients of the Oncological Surgery Clinic in the Medical University of Gdańsk. The procedure was approved by the Independent Bioethics Commission for Research of the Medical University of Gdańsk (NKBBN/387/2014) and written informed consent was obtained from patients prior to surgery. All experiments were performed in accordance with guidelines and regulations. The isolation of fibroblasts was performed by explant culture as previously described. Briefly, skin samples were cut into small pieces, and the epidermis was removed by dispase digestion. To allow cells to grow out from the tissue samples, the human dermis was placed in 6-well plates in DMEM-HG medium (Sigma Aldrich Co., cat. D6429) supplemented with 10% of FBS (fetal bovine serum, Sigma-Aldrich Co., F9665), 100 U/mL of penicillin and 100 μg/mL streptomycin, and placed under standard conditions (humidified atmosphere with 5% CO2 at 37 °C). The medium was changed every 2–3 days.
RADA peptides were dissolved in water at a concentration of 1.0%, placed in culture inserts (0.4 μm) in 24-well plates, and incubated for at least 1 h at 37 °C to allow gelation. […] After 3 days of incubation, cells were stained with carboxyfluorescein succinimidyl ester (CFSE) (10 μM) and propidium iodide (100 µM) for 3 min. and then analyzed by fluorescence microscopy to assess their viability.

[4] = Transmission electron microscopy of nanofibres; assay type: physicochemical; details: 1% gel in PBS diluted to 0.001%, uranyl acetate stain
Protocol: 1% gel solutions were prepared and incubated in PBS. The samples were then diluted to 0.001% concentration. A drop of solution was applied to a microcellulose membrane and stained with a 1.5% solution of uranyl acetate. The images were registered on a Tecnai Spirit BioTwin FEI Transmission Electron Microscope operating at 120 kV.

**Q.** Which “identified fragments of peptides after elastase digestion (most abundant MS signals)” value (shortened to “identified fragments of peptides”) ([1]; fragment Ac-(RADA)4-GGG-AAPV-COOH) does the source give for `CC(=O)N[C@@H](CCCNC(=N)N)C(=O)N[C@@H](C)C(=O)N[C@@H](CC(=O)O)C(=O)N[C@@H](C)C(=O)N[C@@H](CCCNC(=N)N)C(=O)N[C@@H](C)C(=O)N[C@@H](CC(=O)O)C(=O)N[C@@H](C)C(=O)N[C@@H](CCCNC(=N)N)C(=O)N[C@@H](C)C(=O)N[C@@H](CC(=O)O)C(=O)N[C@@H](C)C(=O)N[C@@H](CCCNC(=N)N)C(=O)N[C@@H](C)C(=O)N[C@@H](CC(=O)O)C(=O)N[C@@H](C)C(=O)NCC(=O)NCC(=O)NCC(=O)N[C@@H](C)C(=O)N[C@@H](C)C(=O)N1CCC[C@H]1C(=O)N[C@H](C(=O)NCC(=O)NCC(=O)NCC(=O)N[C@@H](CCCCN)C(=O)NCC(=O)N[C@@H](Cc1c[nH]cn1)C(=O)N[C@@H](CCCCN)C(N)=O)C(C)C` [RADA-KGHK, Ac-(Arg-Ala-Asp-Ala)4-Gly-Gly-Gly-Ala-Ala-Pro-Val-Gly-Gly-Gly-Lys-Gly-His-Lys-NH2] here?
**A.** Its value is “Ac-(RADA)4-GGG-AAPV-COOH”.

**Q.** What about the “identified fragments of peptides” value ([1]; fragment NH2-APV-GGG-KGHK-NH2) of the same compound?
**A.** Its value is “NH2-APV-GGG-KGHK-NH2”.

**Q.** What about the “identified fragments of peptides” value ([1]; fragment NH2-PV-GGG-KGHK-NH2) of the same compound?
**A.** Its value is “NH2-PV-GGG-KGHK-NH2”.

**Q.** What about the “main / predominant fragments of elastase digestion” value ([1]; pH 7.5 buffer, HPLC, mass spectrometry) of the same compound?
**A.** Its value is “Ala^21Pro^22Val^23Gly^24Gly^25Gly^26Lys^27Gly^28His^29Lys^30”.

**Q.** What about the “cytotoxicity (LDH), slight effect” value (HaCaT keratinocytes) of the same compound?
**A.** The value was “ca. 15%”.

**Q.** What about the “cytotoxicity (LDH), slight effect” value (46BR.1N fibroblasts) of the same compound?
**A.** Its value is “ca. 15%”.

**Q.** And the “temperature of first disruption of the β-sheets” value ([2]; [θ]196 nm as function of temperature 4–100 °C, gel 10 mg/ml in water, 37 °C 4 h, diluted to 0.20 mg/ml, decrease of molar ellipticity)?
**A.** The value was roughly 61 °C.

**Q.** And the “transition temperature (half β-conformation, half disordered)” value ([2]; [θ]196 nm vs temperature, 0.20 mg/ml in water, above 100 °C curve extrapolated, 4PL fit)?
**A.** Its value is “about 92 °C”.

**Q.** What about the “viability / dead cells on scaffold (CFSE / propidium iodide)” value [3] of the same compound?
**A.** Its value is “most dead cells were observed”.

**Q.** What about the “fibre thickness (TEM)” value [4] of the same compound?
**A.** Its value is “about 3 nm”.
